The target in test [1] is MCL-1 (Homo sapiens (Human), UniProt Q07820). Briefly: Cell free Mcl-1:Bim affinity assay (fluorescence polarization competition). It is filed as binding. The conditions noted are these: 15 nM MCL-1, 5 nM FITC-Bim, 1 hour at room temperature, read-out: BIM_Ki. How it is done: The binding affinity of each compound was measured via a fluorescence polarization competition assay, in which the compound competes for the same binding site with the ligand, and thus leads to a dose-dependent anisotropy reduction. The tracer ligand utilized was a fluorescein isothiocyanate labelled peptide (FITC-[…]) derived from Bim (GenScript).
MCL-1, sequence (Q07820 whole entry): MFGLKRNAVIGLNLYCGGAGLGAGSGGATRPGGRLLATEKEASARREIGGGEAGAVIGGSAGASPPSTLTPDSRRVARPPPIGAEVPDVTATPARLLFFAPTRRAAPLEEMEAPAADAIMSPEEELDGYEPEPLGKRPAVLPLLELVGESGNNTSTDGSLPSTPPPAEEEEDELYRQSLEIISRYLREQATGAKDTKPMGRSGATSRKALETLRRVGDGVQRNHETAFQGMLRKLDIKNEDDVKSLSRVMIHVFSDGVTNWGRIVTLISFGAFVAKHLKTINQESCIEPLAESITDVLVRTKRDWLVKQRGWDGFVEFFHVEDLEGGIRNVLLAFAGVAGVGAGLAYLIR
The assay was carried out in black half-area 96-well NBS plate (Corning), containing 15 nM of MCL-1 (BPS Bioscience), 5 nM of FITC-Bim and 3-fold serial diluted test compounds in a total volume of 50 μL of assay buffer (20 mM HEPES, 50 mM NaCl, 0.002% Tween 20, 1 mM TCEP, and 1% DMSO). The reaction plate was incubated for 1 hour at room temperature. The change of anisotropy is measured with an Envision multimode plate reader (PerkinElmer) at emission wavelength 535 nm. Fluorescence polarization was calculated in mP unit and the percentage inhibition was calculated by % inhibition=100×(mPDMSO−mP)/(mPDMSO−mPPC), in which mPDMSO is the DMSO control, and mPpc is the positive control. IC50 values were determined from a 10-point dose response curve by fitting the percent inhibition against compound concentration using the GraphPad Prism software. The inhibition constant Ki was subsequently calculated according to the Nikolovska-Coleska's equation (Anal. Biochem., 2004, 332, 261),
[formula] • where [I]50 is the concentration of the free inhibitor at 50% inhibition, [L]50 is the concentration of the free labeled ligand at 50% inhibition, [P]0 is the concentration of the free protein at 0% inhibition, and Kd is the dissociation constant of the protein-ligand complex. See Table F. Caspase 3/7 Activity Assay
(In fluorescence polarisation assays a small probe gives low polarisation when free and higher when bound to something large.)

Test [2] deals with H929 cells. Briefly: Cell viability assay (H929 10 FBS). It is filed as cell-based. To be noted: Homo sapiens, NCI-H929, 24 hours, read-out: H929_10FBS IC50. How it is done:
Cell Viability Assay (H929 10 FBS)
Dispense 10 μL aliquot of prepared H929 cells (1:1 ratio of cells:Trypan Blue (#1450013, Bio-Rad)) onto cell counting slide (#145-0011, Bio-Rad) and obtain cell density and cell viability using cell counter (TC20, Bio-Rad). Remove appropriate volume of resuspended cells from culture flask to accommodate 4000 cells/well @ 10 μL/well. Transfer H929 cells to 50 mL conical (#430290, Corning). Spin down at 1000 rpm for 5 min using tabletop centrifuge (SPINCHRON 15, Beckman). Discard supernatant and resuspend cell pellet in modified RPMI 1640 (#10-040-CV, Corning) cell culture media containing 10% FBS (F2422-500 ML, Sigma), sodium pyruvate (100 mM) (#25-000-CL, Corning), HEPES buffer (1 M) (#25-060-CL, Corning) and glucose (200 g/L) (A24940-01, Gibco) to a cell density of 400,000 cells/mL. Dispense 10 μL of resuspended H929 cells per well in 384-well small volume TC treated plate (#784080, Greiner Bio-one) using standard cassette (#50950372, Thermo Scientific) on Multi-drop Combi (#5840310, Thermo Scientific) in laminar flow cabinet. Dispense compounds onto plates using digital liquid dispenser (D300E, Tecan). Incubate plates in humidified tissue culture incubator @ 37° C. for 24 hours. Add 10 μL of prepared CellTiTer-Glo® detection buffer (G7570, Promega) or ATPlite 1 Step detection reagent (#6016731, Perkin Elmer) to each well of 384-well plate using small tube cassette (#24073295, Thermo Scientific) on Combi multi drop, incubate @ RT for 30-60 min. Read plates with microplate reader (PheraStar, BMG Labtech) using 384 well luminescence mode.

Data on 19 compounds can be found in patent US11130769B2 (Prelude Therapeutics Incorporated, priority 2018, dated 2021).

SMILES strings stand for the structures. Like-named read-outs stand apart in the source and are kept apart here.

As usually defined, the IC50 is the concentration that gives 50% inhibition. As to `CO[C@@H]1/C=C/CNCC(C)(C)C(=O)NS(=O)(=O)c2ccc3c(c2)N(C[C@@H]2CC[C@H]21)C[C@@]1(CCCc2cc(Cl)ccc21)CO3` [Example 68, (3R,6R,7R,8E,23S)-6′-Chloro-7-methoxy-13,13-dimethyl-16,16-dioxo-spiro[21-oxa-16-thia-1,11,15-triazatetracyclo[15.7.2.03,6.020,25]hexacosa[8,17(26),18,20(25)]tetraene-23,1′-tetralin]-14-one], the Ki in test [1] (class symbols) lay in the range of 1 to 100 nM. For the same compound, the concentration for half-maximal inhibition (IC50) in test [2] is greater than 1000 nM.
For `CC1(C)OC/C=C/[C@@H](O)[C@@H]2CC[C@H]2CN2C[C@@]3(CCCc4cc(Cl)ccc43)COc3ccc(cc32)S(=O)(=O)NC1=O` [Example 36, (3R,6R,7R,8E,22S)-6′-Chloro-7-hydroxy-12,12-dimethyl-15,15-dioxo-spiro[11,20-dioxa-15-thia-1,14-diazatetracyclo[14.7.2.03,6.019,24]pentacosa-8,16,18,24-tetraene-22,1′-tetralin]-13-one] the same measures were less than 1 nM and less than 1000 nM.
For `CN(C)C(=O)O[C@@]1(C)/C=C/COC(C)(C)C(=O)NS(=O)(=O)c2ccc3c(c2)N(C[C@@H]2CC[C@H]21)C[C@@]1(CCCc2cc(Cl)ccc21)CO3` [Example 293, [(3R,6R,7S,8E,22S)-6′-chloro-7,12,12-trimethyl-13,15,15-trioxo-spiro[11,20-dioxa-15-thia-1,14-diazatetracyclo[14.7.2.03,6.019,24]pentacosa-8,16,18,24-tetraene-22,1′-tetralin]-7-yl] N,N-dimethylcarbamate] the same measures were less than 1 nM and less than 500 nM.
For `CC(C)N1CCN(C(=O)O[C@H]2/C=C/COC(C)(C)C(=O)NS(=O)(=O)c3ccc4c(c3)N(C[C@@H]3CC[C@H]32)C[C@@]2(CCCc3cc(Cl)ccc32)CO4)CC1` [Example 186, [(3R,6R,7S,8E,22S)-6′-Chloro-12,12-dimethyl-13,15,15-trioxo-spiro[11,20-dioxa-15-thia-1,14-diazatetracyclo[14.7.2.03,6.019,24]pentacosa-8,16,18,24-tetraene-22,1′-tetralin]-7-yl] 4-isopropylpiperazine-1-carboxylate] the same measures were less than 1 nM and less than 500 nM.
Turning to `CN1C/C=C/[C@H](OCCN2CC(F)C2)[C@@H]2CC[C@H]2CN2C[C@@]3(CCCc4cc(Cl)ccc43)COc3ccc(cc32)S(=O)(=O)NC(=O)C1(C)C` [Example 275, (3R,6R,7S,8E,22S)-6′-Chloro-7-[2-(3-fluoroazetidin-1-yl)ethoxy]-11,12,12-trimethyl-15,15-dioxo-spiro[20-oxa-15-thia-1,11,14-triazatetracyclo[14.7.2.03,6.019,24]pentacosa-8,16,18,24-tetraene-22,1′-tetralin]-13-one], the Ki in test [1] (class symbols) lay in the range of 1 to 100 nM. Also, the concentration for half-maximal inhibition (IC50) in test [2] is less than 500 nM.
For `CCOC1CN(C(=O)O[C@H]2/C=C/COC(C)(C)C(=O)NS(=O)(=O)c3ccc4c(c3)N(C[C@@H]3CC[C@H]32)C[C@@]2(CCCc3cc(Cl)ccc32)CO4)C1` [Example 57, [(3R,6R,7S,8E,22S)-6′-Chloro-12,12-dimethyl-13,15,15-trioxo-spiro[11,20-dioxa-15-thia-1,14-diazatetracyclo[14.7.2.03,6.019,24]pentacosa-8,16,18,24-tetraene-22,1′-tetralin]-7-yl] 3-ethoxyazetidine-1-carboxylate] the same measures were less than 1 nM and less than 500 nM.
For `COC1CN(C(=O)CO[C@H]2/C=C/COC(C)(C)C(=O)NS(=O)(=O)c3ccc4c(c3)N(C[C@@H]3CC[C@H]32)C[C@@]2(CCCc3cc(Cl)ccc32)CO4)C1` [Example 280, (3R,6R,7S,8E,22S)-6′-Chloro-7-[2-(3-methoxyazetidin-1-yl)-2-oxo-ethoxy]-12,12-dimethyl-15,15-dioxo-spiro[11,20-dioxa-15-thia-1,14-diazatetracyclo[14.7.2.03,6.019,24]pentacosa-8,16,18,24-tetraene-22,1′-tetralin]-13-one] the same measures were less than 1 nM and less than 500 nM.
`CN(C)[C@@H]1CCN(C(=O)O[C@H]2/C=C/COC(C)(C)C(=O)NS(=O)(=O)c3ccc4c(c3)N(C[C@@H]3CC[C@H]32)C[C@@]2(CCOc3cc(Cl)ccc32)CO4)C1` [Example 310]: the IC50 in test [2] is less than 500 nM.
Same read-out and setting: then `CN(C)C[C@H]1CCCN1C(=O)O[C@H]1/C=C/COC(C)(C)C(=O)NS(=O)(=O)c2ccc3c(c2)N(C[C@@H]2CC[C@H]21)C[C@@]1(CCCc2cc(Cl)ccc21)CO3` [Example 169], with less than 500 nM; and `CCOC(=O)N(C)[C@@H]1/C=C/COC(C)(C)C(=O)NS(=O)(=O)c2ccc3c(c2)N(C[C@@H]2CC[C@H]21)C[C@@]1(CCCc2cc(Cl)ccc21)CO3` [Example 252], with greater than 1000 nM.
Turning to `O=C(NS(=O)(=O)c1ccc2c(c1)N(CC1CCC1)CC1(CCCc3cc(Cl)ccc31)CO2)c1ccc(Cl)cc1` (centres unmarked) [Example 7, 4-Chloro-N-[6′-chloro-5-(cyclobutylmethyl)spiro[2,4-dihydro-1,5-benzoxazepine-3,1′-tetralin]-7-yl]sulfonyl-benzamide], the Ki in test [1] (numeric values) was 227 nM.
`CN1C/C=C/[C@H](OC(=O)NC2CC2)[C@@H]2CC[C@H]2CN2C[C@@]3(CCCc4cc(Cl)ccc43)COc3ccc(cc32)S(=O)(=O)NC(=O)C1(C)C` [Example 206]: the 50% inhibitory concentration (IC50) in test [2] was less than 500 nM.
Take `CN(C)C1CN(C(=O)O[C@H]2/C=C/COC(C)(C)C(=O)NS(=O)(=O)c3ccc4c(c3)N(C[C@@H]3CC[C@H]32)C[C@@]2(CCOc3cc(Cl)ccc32)CO4)C1` [Example 311]: the half-inhibitory concentration (IC50) in test [2] is less than 500 nM.
The same measure, in the same setting: the same measure for `CN(C)CCN(C)C(=O)O[C@H]1/C=C/COC(C)(C)C(=O)NS(=O)(=O)c2ccc3c(c2)N(C[C@@H]2CC[C@H]21)C[C@@]1(CCOc2cc(Cl)ccc21)CO3` [Example 307]: less than 500 nM; for `CCO[C@@H]1CCN(C(=O)O[C@H]2/C=C/COC(C)(C)C(=O)NS(=O)(=O)c3ccc4c(c3)N(C[C@@H]3CC[C@H]32)C[C@@]2(CCOc3cc(Cl)ccc32)CO4)C1` [Example 308]: less than 500 nM.
As to `O=C(NS(=O)(=O)c1ccc2c(c1)N(CC1CCC1)C[C@@]1(CCCc3cc(Cl)ccc31)CO2)OCc1ccccc1` (stereo in doubt) [Example 14, Benzyl N-[6′-chloro-5-(cyclobutylmethyl)spiro[2,4-dihydro-1,5-benzoxazepine-3,1′-tetralin]-7-yl]sulfonylcarbamate], in test [1] (numeric values), the Ki turned out to be 222 nM.
Consider `CO[C@H]1/C=C/CN2CCC[C@H]2C(=O)NS(=O)(=O)c2ccc3c(c2)N(C[C@@H]2CC[C@H]21)C[C@@]1(CCCc2cc(Cl)ccc21)CO3` [Example 100], for which the IC50 in test [2] was greater than 1000 nM.
In the case of `CO[C@@H]1/C=C/CN(C)C(=O)NS(=O)(=O)c2ccc3c(c2)N(C[C@@H]2CC[C@H]21)C[C@@]1(CCCc2cc(Cl)ccc21)CO3` [Example 108, (3R,6R,7R,8E,21S)-6′-Chloro-7-methoxy-11-methyl-14,14-dioxo-spiro[19-oxa-14-thia-1,11,13-triazatetracyclo[3.7.2.03,6.018,23]tetracosa-8,15,17,23-tetraene-21,1′-tetralin]-12-one], the IC50 in test [2] is greater than 1000 nM.
On the same count and under the same terms, then `COC1CN(C(=O)O[C@H]2/C=C/COC(C)(C)C(=O)NS(=O)(=O)c3ccc4c(c3)N(C[C@@H]3CC[C@H]32)C[C@@]2(CCOc3cc(Cl)ccc32)CO4)C1` [Example 309], with less than 1000 nM.
